Experimental data from ChEMBL document CHEMBL4190345, “Synthesis and biological evaluation of new substituted thioglycolurils, their analogues and derivatives” (Eur J Med Chem, 2017).

Tests used:
Assay type in all cases: functional
Conditions in all cases: read-out: GI
[1] = system: Rhizoctonia solani; assay: Fungicidal activity against Rhizoctonia solani grown under potato-saccharose agar assessed as inhibition of mycelial radial growth at 30 mg/l incubated for 72 hrs
[2] = system: Venturia inaequalis; assay: Fungicidal activity against Venturia inaequalis grown under potato-saccharose agar assessed as inhibition of mycelial radial growth at 30 mg/l incubated for 72 hrs
[3] = system: Fusarium verticillioides; assay: Fungicidal activity against Fusarium moniliforme grown under potato-saccharose agar assessed as inhibition of mycelial radial growth at 30 mg/l incubated for 72 hrs
[4] = system: Fusarium oxysporum; assay: Fungicidal activity against Fusarium oxysporum grown under potato-saccharose agar assessed as inhibition of mycelial radial growth at 30 mg/l incubated for 72 hrs
[5] = system: Sclerotinia sclerotiorum; assay: Fungicidal activity against Sclerotinia sclerotiorum grown under potato-saccharose agar assessed as inhibition of mycelial radial growth at 30 mg/l incubated for 72 hrs
[6] = system: Bipolaris sorokiniana; assay: Fungicidal activity against Bipolaris sorokiniana grown under potato-saccharose agar assessed as inhibition of mycelial radial growth at 30 mg/l incubated for 72 hrs

Structure (SMILES) | inhibition of growth at 30 µg/mL [1] | inhibition of growth at 30 µg/mL [2] | inhibition of growth at 30 µg/mL [3] | inhibition of growth at 30 µg/mL [4] | inhibition of growth at 30 µg/mL [5] | inhibition of growth at 30 µg/mL [6]
CSC1=NC2C(N(C)C(=O)N2C)N1/N=C/C=C/c1ccco1 (centres undefined) | 27% | 19% | 51% | 34% | 11% | 34%
CSC1=NC2C(N(C)C(=O)N2c2ccccc2)N1/N=C/C=C/c1ccccc1 (centres undefined) | 32% | 24% | 16% | 25% | 0% | 56%
COc1ccccc1/C=C/C=N/N1C(SC)=NC2C1N(C)C(=O)N2C (centres undefined) | 56% | 13% | 14% | 20% | 13% | 33%
COc1ccc(/C=C/C=N/N2C(SC)=NC3C2N(C)C(=O)N3C)cc1 (centres undefined) | 74% | 13% | 36% | 24% | 19% | 50%
CN1C(=O)N(C)C2C1N=C(SCc1ccc(Cl)cc1)N2/N=C/C=C/c1ccccc1 (centres undefined) | 28% | 18% | 57% | 46% | 17% | 49%
CCSC1=NC2C(N(C)C(=O)N2C)N1/N=C/C=C/c1ccccc1 (centres undefined) | 80% | 28% | 71% | 70% | 32% | 48%
CSC1=NC2C(N(C)C(=O)N2C)N1/N=C/C=C/c1ccccc1 (centres undefined) | 45% | 9% | 73% | 71% | 17% | 50%
CN1C(=O)N(C)C2C1N=C(SCc1ccc(Cl)cc1)N2/N=C/C=C/c1ccco1 (centres undefined) | 42% | 10% | 42% | 33% | 19% | 40%
CCSC1=NC2C(N(CC)C(=O)N2CC)N1/N=C/C=C/c1ccccc1 (centres undefined) | 67% | 30% | 63% | 61% | 29% | 77%
CSC1=NC2C(N(C)C(=O)N2c2ccccc2)N1/N=C/C=C/c1ccccc1[N+](=O)[O-] (centres undefined) | 12% | 16% | 9% | 10% | 17% | 37%
CCN1C(=O)N(CC)C2C1N=C(SC)N2/N=C/C=C/c1ccc(OC)cc1 (centres undefined) | 76% | 13% | 32% | 32% | 12% | 64%
CN1C(=O)N(C)C2C1NC(=O)N2/N=C/C=C/c1ccccc1 (centres undefined) | 92% | 18% | 9% | 6% | 12% | 5%
CCN1C(=O)N(CC)C2C1N=C(SCc1ccc(Cl)cc1)N2/N=C/C=C/c1ccccc1OC (centres undefined) | 19% | 21% | 13% | 8% | 14% | 36%
CC(C)(C)C(=O)C(Oc1ccc(Cl)cc1)n1cncn1 (centres undefined) [TRIADIMEFON] | 52% | 60% | 61% | 64% | 61% | 76%
